Here are results for 7 compounds from ChEMBL document CHEMBL5344447, “A Homodimer of Withaferin A Formed by Base-Promoted Elimination of Acetic Acid from 27-O-Acetylwithaferin A Followed by a Diels-Alder Reaction” (J Nat Prod, 2024).

Broadly, the IC50 is the concentration that inhibits the measured activity by half.

For data set [1], the system named is LNCaP. In words: Cytotoxicity against human LNCaP cells assessed as reduction in cell proliferation by MTT assay. Format: functional, cell-based. Background: Formazan colour is commonly taken as a measure of viable cells.
Data set [2] in a line: Cytotoxicity against human hormone nonresponsive and Castration-resistant 22Rv1 cells assessed as reduction in cell proliferation by MTT assay. Format: functional, cell-based, Castration-resistant 22Rv1 cell.
Data set [3] deals with DU-145. In words: Cytotoxicity against human hormone nonresponsive DU-145 cells assessed as reduction in cell proliferation by MTT assay. The class given is functional, cell-based.
Data set [4] has as its system PC-3. Nature of the data set: Cytotoxicity against human hormone nonresponsive PC-3 cells assessed as reduction in cell proliferation by MTT assay. The class given is functional, cell-based.
The nature of data set [5]: Cytotoxicity against human HFF cells assessed as reduction in cell proliferation by MTT assay. Format: toxicity, cell-based.

SMILES strings stand for the structures.

With `COc1cccc2c1C(=O)c1c(O)c3c(c(O)c1C2=O)C[C@@](O)(C(=O)CO)C[C@@H]3O[C@H]1C[C@H](N)[C@H](O)[C@H](C)O1` [DOXORUBICIN], the IC50 in data set [1] is 100 nM; in data set [2], 40 nM; in data set [3], 100 nM; in data set [4] it was 600 nM; in data set [5], 1400 nM.

In the case of `C=C1C[C@@H]([C@@H](C)[C@H]2CC[C@H]3[C@@H]4C[C@H]5O[C@]56[C@@H](OC(C)=O)C=CC(=O)[C@]6(C)[C@H]4CC[C@]23C)OC(=O)[C@@]12CCC1=C(C[C@@H]([C@@H](C)[C@H]3CC[C@H]4[C@@H]5C[C@H]6O[C@]67[C@@H](OC(C)=O)C=CC(=O)[C@]7(C)[C@H]5CC[C@]34C)OC1=O)C2`, the IC50 in data set [1] is greater than 5000 nM; in data set [2] it was 2600 nM; in data set [3], 3700 nM; in data set [4], 1000 nM; in data set [5] it was 2500 nM.

On to `C=C1C(=O)O[C@@H]([C@@H](C)[C@H]2CC[C@H]3[C@@H]4C[C@H]5O[C@]56[C@@H](O)C=CC(=O)[C@]6(C)[C@H]4CC[C@]23C)C=C1C`, for which the IC50 was greater than 5000 nM in data set [1]; greater than 5000 nM in data set [2]; greater than 5000 nM in data set [3]; 2200 nM in data set [4]; greater than 5000 nM in data set [5].

Regarding `C=C1C(=O)O[C@@H]([C@@H](C)[C@H]2CC[C@H]3[C@@H]4C[C@H]5O[C@]56[C@@H](OC(C)=O)C=CC(=O)[C@]6(C)[C@H]4CC[C@]23C)C=C1C`, the IC50 came out at 1600 nM in data set [1]; 1500 nM in data set [2]; 2500 nM in data set [3]; 400 nM in data set [4]; 2000 nM in data set [5].

As to `C=C1C[C@@H]([C@@H](C)[C@H]2CC[C@H]3[C@@H]4C[C@H]5O[C@]56[C@@H](OC(=O)c5ccc([N+](=O)[O-])cc5)C=CC(=O)[C@]6(C)[C@H]4CC[C@]23C)OC(=O)[C@@]12CCC1=C(C[C@@H]([C@@H](C)[C@H]3CC[C@H]4[C@@H]5C[C@H]6O[C@]67[C@@H](OC(=O)c6ccc([N+](=O)[O-])cc6)C=CC(=O)[C@]7(C)[C@H]5CC[C@]34C)OC1=O)C2`, the IC50 in data set [1] came to 2300 nM; in data set [2], 1100 nM; in data set [3], 1100 nM; in data set [4] it was 200 nM; in data set [5] it was 500 nM.

On to `C=C1C[C@@H]([C@@H](C)[C@H]2CC[C@H]3[C@@H]4C[C@H]5O[C@]56[C@@H](O)C=CC(=O)[C@]6(C)[C@H]4CC[C@]23C)OC(=O)[C@@]12CCC1=C(C[C@@H]([C@@H](C)[C@H]3CC[C@H]4[C@@H]5C[C@H]6O[C@]67[C@@H](O)C=CC(=O)[C@]7(C)[C@H]5CC[C@]34C)OC1=O)C2`, for which the IC50 in data set [1] turned out to be 900 nM; in data set [2], 1100 nM; in data set [3] it was 1000 nM; in data set [4], 200 nM; in data set [5] it was 600 nM.

Consider `CC(=O)OCC1=C(C)C[C@H]([C@@H](C)[C@H]2CC[C@H]3[C@@H]4C[C@H]5O[C@]56[C@@H](O)C=CC(=O)[C@]6(C)[C@H]4CC[C@]23C)OC1=O`, for which the IC50 in data set [1] worked out at 1900 nM; in data set [2] it was 1400 nM; in data set [3], 800 nM; in data set [4] it was 300 nM; in data set [5], 1900 nM.
